Measurements from patent US20210221785A1, “AMINO-PYRIMIDONYL DERIVATIVES, A PROCESS FOR THEIR PREPARATION AND PHARMACEUTICAL COMPOSITIONS CONTAINING THEM” (LES LABORATOIRES SERVIER, priority 2018, published 2021).

target: T1, His-His-USP7 (aa208-560, |C315A|) (Homo sapiens, UniProt Q93009, C315A); experiment: Evaluation of the inhibition of USP7 by the Fluorescence Intensity (FLINT) readings; type: biochemical; details: 0.25 nM His-His-USP7, compound incubated 60 minutes at 30° C., 500 nM Ubiquitin-Rhodamine-110 substrate; 50% reduction in kinetic rate
T1 construct: His-His-USP7 (aa208-560, |C315A|); His-His (N)
T1 sequence (Q93009 208-560 C315A): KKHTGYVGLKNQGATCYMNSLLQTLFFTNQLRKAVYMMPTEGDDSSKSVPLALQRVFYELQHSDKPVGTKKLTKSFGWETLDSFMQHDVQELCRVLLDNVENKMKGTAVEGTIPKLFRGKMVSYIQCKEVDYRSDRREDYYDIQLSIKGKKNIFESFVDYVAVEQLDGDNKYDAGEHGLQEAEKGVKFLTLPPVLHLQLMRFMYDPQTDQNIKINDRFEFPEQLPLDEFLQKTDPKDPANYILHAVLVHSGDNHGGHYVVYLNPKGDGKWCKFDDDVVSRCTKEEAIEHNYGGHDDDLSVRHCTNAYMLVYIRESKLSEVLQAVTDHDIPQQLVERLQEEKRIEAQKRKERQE
Procedure: USP7 activity was measured using Rhodamine-110 c-terminal labelled Ubiquitin as a substrate (UbiQ Bio). Incubation with USP7 results in the release of Rhodamine-110 leading to an increase in fluorescence which can be used in the continuous measurement of USP7 activity.
The USP7 reactions were performed in a 50 μL volume, in 384 well black solid low binding plates (Corning #3575). The reaction buffer consisted of 100 mM Bicine pH 8.0, 0.01% TritonX100, 1 mM TCEP, and 10% DMSO.
0.25 nM His-His-USP7 (aa208-560, |C315A|) was incubated with compound (final concentration 10% DMSO) for 60 minutes at 30° C. The reaction was then initiated by the addition of 500 nM Ubiquitin-Rhodamme-110 substrate and the plate read every 3 minutes for 21 minutes to measure the release of Rhodamine-110. Fluorescence Intensity (FLINT) readings were measured using a […] plate reader (Ex.485 nm, Em.535 nm).
The inhibition of increasing doses of compound was expressed as a percentage reduction in kinetic rate compared to the kinetic rates established between ‘DMSO only’ and ‘total inhibition’ controls (no USP7). The inhibitory concentrations that gave a 50% reduction in kinetic rate (IC50) were determined, from 11-point dose response cures, in XL-Fit using a 4-Parameter Logistic Model 205 (Sigmoidal Dose-Response Model).

IC50	Compound
158 nM	Nc1c(Oc2ccc(CC(F)(F)F)cc2)ncn(CC2(O)CCN(C(=O)[C@@H]3CCC(F)(F)C[C@H]3c3ccccc3)CC2)c1=O [Example 37, 5-amino-3-({1-[(1R,2R)-4,4-difluoro-2-phenylcyclohexane-1-carbonyl]-4-hydroxypiperidin-4-yl}methyl)-6-[4-(2,2,2-trifluoroethyl)phenoxyl]pyrimidin-4(3H)-one]
116 nM	Nc1c(Oc2ccc(CCF)cc2)ncn(CC2(O)CCN(C(=O)[C@@H]3CCC(F)(F)C[C@H]3c3ccccc3)CC2)c1=O [Example 39, 5-amino-3-({1-[(1R,2R)-4,4-difluoro-2-phenylcyclohexane-1-carbanyl]-4-hydroxypiperidin-4-yl}methyl)-6-[4-(2-fluoroethyl)phenoxy]pyrimidin4(3H)-one]
132 nM	Nc1c(Oc2ccc(F)c(OC(F)(F)F)c2)ncn(CC2(O)CCN(C(=O)[C@@H]3CCC(F)(F)C[C@H]3c3ccccc3)CC2)c1=O [Example 40, 5-amino-3-({1-[(1R,2R)-4,4-difluoro-2-phenylcyclohexane-1-carbonyl]-4-hydroxypiperidin-4-yl}methyl)-6-[4-fluoro-3-(trifluoromethoxy)phenoxy]pyrimidin-4(3H)-one]
138 nM	CC(C)(O)c1cccc(Oc2ncn(CC3(O)CCN(C(=O)[C@@H]4CCC(F)(F)C[C@H]4c4ccccc4)CC3)c(=O)c2N)c1 [Example 49, 5-amino-3-({1-[(1R,2R)-4,4-difluoro-2-phenylcyclohexane-1-carbonyl]-4-hydroxypiperidin-4-yl}methyl)-6-[3-(2-hydroxypropan-2yl)phenoxy]pyrimidin-4(3H)-one]
116 nM	N#Cc1ccc(Oc2ncn(CC3(O)CCN(C(=O)[C@@H]4CCC(F)(F)C[C@H]4c4ccccc4)CC3)c(=O)c2N)cc1F [Example 50, 4-{[5-amino-1-({1-[(1R,2R)-4,4-fluoro-2-phenylcyclohexane-1-carbonyl]-4-hydroxypiperidin-4-yl}methyl)-6-oxo-1,6-dihydropyrimidin-4-yl]oxy}-2-fluorobenzonitrile]
120 nM	N#Cc1ccc(Oc2ncn(CC3(O)CCN(C(=O)[C@@H]4CCC(F)(F)C[C@H]4c4ccccc4)CC3)c(=O)c2N)cc1Cl [Example 51, 4-{[5-amino-({1-[(1R,2R)-4,4difluoro-2-phenylcyclohexane-1-carbonyl]-4-hydroxypiperidin-4-yl}methyl)-6-oxo-1,6-dihydropyrimidin-4-yl]oxy}-2-chlorobenzonitrile]
439 nM	N#Cc1ccc(Oc2ncn(CC3(O)CCN(C(=O)[C@@H]4CCC(F)(F)C[C@H]4c4ccccc4)CC3)c(=O)c2N)c(Cl)c1 [Example 53, 4-{[5-amino-1-([1-[(1R,2R)-4,4-difluoro-2-phenylcyclohexane-1-carbanyl]-4-hydroxypiperidin-4-yl]methyl)-6-oxo-1,6-dihydropyrimidin-4-yl]oxy}-3-chlorobenzonitrile]
611 nM	O=C([C@@H]1CCC(F)(F)C[C@H]1c1ccccc1)N1CCC(O)(Cn2cnc(Oc3ccc(F)cc3)c(NCc3ccccc3)c2=O)CC1 [Example 57, 5-(benzylamino)-3-({1-[(1R,2R)-4,4-difluoro-2-phenylcyclohexane-1-carbonyl]-4-hydroxypiperidin-4-yl}methyl)-6-(4-fluorophenoxy)pyrimidin-4(3H)-one]
67 nM	NC(=O)c1ccc(Oc2ncn(CC3(O)CCN(C(=O)[C@@H]4CCC(F)(F)C[C@H]4c4ccccc4)CC3)c(=O)c2N)cc1 [Example 58, 4-{[5-amino-1-({1-[(1R,2R)-4,4-difluoro-2-phenylcyclohexane-1-carbonyl]-4-hydroxypiperidin-4-yl}methyl)-6-oxo-1,6-dihydropyrimidin-4-yl]oxy}benzamide]
6.5 nM	CNCc1ccc(Oc2ncn(CC3(O)CCN(C(=O)[C@@H]4CCC(F)(F)C[C@H]4c4ccccc4)CC3)c(=O)c2N)cc1 [Example 60, 5-amino-3-({1-((1R,2R)-4,4-difluoro-2-phenylcyclohexane-1-carbony]-4-hydroxypiperidin-4-yl}methyl)-6-{4-[(methylamino)methyl]phenoxy}pyrimidin-4(3H)-one]
100 nM	NC(=O)c1cccc(Oc2ncn(CC3(O)CCN(C(=O)[C@@H]4CCC(F)(F)C[C@H]4c4ccccc4)CC3)c(=O)c2N)c1 [Example 62, 3-{[5-amino-1-([1-[(1R,2R)-4,4-difluoro-2-phenylcyclohexane-1-carbonyl]-4-hydroxypiperidin-4-yl]methyl)-6-oxy-1,6-dihydropyrimidin-4-yl]oxy}benzamide]
1620 nM	Nc1c(Oc2cccc(C(=O)O)c2)ncn(CC2(O)CCN(C(=O)[C@@H]3CCC(F)(F)C[C@H]3c3ccccc3)CC2)c1=O [Example 63]
119 nM	NCc1ccc(Oc2ncn(CC3(O)CCN(C(=O)[C@@H]4CCC(F)(F)C[C@H]4c4ccccc4)CC3)c(=O)c2N)c(Cl)c1 [Example 69, 5-amino-6-[4-(aminomethyl)-2-chlorophenoxyl]-3-({1-[(1R,2R)-4,4-difluoro-2-phenylcyclohexane-1-carbonyl]-4-hydroxypiperidin04-yl}methyl)pyrimidin-4(3H)-one]
134 nM	Nc1c(Oc2ccc(CNc3ccccc3)cc2)ncn(CC2(O)CCN(C(=O)[C@@H]3CCC(F)(F)C[C@H]3c3ccccc3)CC2)c1=O [Example 70, 5-amino-6-[4-(anilinomethyl)phenoxy]-3-({1-[(1R,2R)-4,4-difluoro-2-phenylcyclohexane-1-carbonyl]-4-hydroxypiperidin-4-yl}methyl)pyrimidin-4(3H)-one]
227 nM	Nc1c(Oc2ccc(CN(C=O)CC(F)(F)F)cc2)ncn(CC2(O)CCN(C(=O)[C@@H]3CCC(F)(F)C[C@H]3c3ccccc3)CC2)c1=O [Example 74, N-[(4-{[5-amino-1-({1-[(1R,2R)-4,4-difluoro-2-phenylcyclohexane-1-carbonyl]-4-hydroxypiperidin-4-yl}methyl)-6-oxo-1,6-dihydropyrimidin-4-yl]oxy}phenyl)methyl]-N-(2,2,2-trifluoroethyl)formamide]
228 nM	Nc1c(Oc2ccc(F)cc2)ncn(C[C@]2(O)CCN(C(=O)[C@@H]3CCC(F)(F)C[C@H]3c3ccccc3)CC2(F)F)c1=O [Example 79, 5-amino-3-({(4R)-1-[(1R,2R)-4,4-difluoro-2-phenylcyclohexane-1-carbonyl]-3,3-difluoro-4-hydroxypiperidin-4-yl}methyl)-6-(4-fluorophenoxy)pyrimidin-4(3H)-one]
375 nM	NC(=O)c1ccc(Oc2ncn(CC3(O)CCN(C(=O)[C@@H]4CCC(F)(F)C[C@H]4c4ccccc4)CC3)c(=O)c2N)cc1Cl [Example 80, 4-{[5-amino-1-({1-[(1R,2R)-4,4-difluoro-2-phenylcyclohexane-1-carbonyl]-4-hydroxypiperidin-4-yl}methyl)-6-oxo-1,6-dihydropyrimidin-4-yl]oxy}-2-chlorobentamide]

Compound	IC50
Nc1c(Oc2cccc(C3CCCCN3)c2)ncn(CC2(O)CCN(C(=O)[C@@H]3CCC(F)(F)C[C@H]3c3ccccc3)CC2)c1=O (stereo partly drawn) [Example 47, 5-amino-3-({1-[(1R,2R)-4,4-difluoro-2-phenylcyclohexane-1-carbonyl]-4-hydroxypiperidin-4-yl}methyl)-6-[3-(piperidin-2-yl)phenoxy]pyrimidin-4(3H)-one]	8.81 nM
